One may read the IC50 as the concentration needed to halve the response being measured.

In test [1] the test system is HCT-116. The test is described as follows: Cytotoxicity against human HCT116 cells after 72 hrs by SRB assay relative to Nutlin-3. The test is classed as functional. A general note: The SRB assay estimates cell density from bound dye.
Test [2] deals with Tumour suppressor p53/oncoprotein Mdm2 (Homo sapiens, UniProt Q00987). In words: Inhibition of p53-MDM2 (1 to 118 residues) interaction (unknown origin) expressed in Escherichia coli BL-21 (DE3) assessed as inhibition of MDM2 binding by fluorescence polarization competitive binding assay. Background: Fluorescence polarisation rises when a labelled molecule tumbles more slowly, as on binding a larger partner.
Sequence of Tumour suppressor p53/oncoprotein Mdm2 (P04637 whole entry, the tested form may be a part): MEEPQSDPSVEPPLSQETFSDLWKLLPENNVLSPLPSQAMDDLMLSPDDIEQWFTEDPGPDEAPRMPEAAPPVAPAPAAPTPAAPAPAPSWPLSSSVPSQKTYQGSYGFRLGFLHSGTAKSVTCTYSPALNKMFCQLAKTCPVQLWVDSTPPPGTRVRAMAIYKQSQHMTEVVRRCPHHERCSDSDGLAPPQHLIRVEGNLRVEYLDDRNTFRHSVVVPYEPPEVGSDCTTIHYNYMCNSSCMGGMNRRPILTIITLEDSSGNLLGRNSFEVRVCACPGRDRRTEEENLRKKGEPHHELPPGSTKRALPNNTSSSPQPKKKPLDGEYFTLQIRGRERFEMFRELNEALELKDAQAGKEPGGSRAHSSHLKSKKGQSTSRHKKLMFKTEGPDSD
Sequence of Tumour suppressor p53/oncoprotein Mdm2 (Q00987 whole entry, the tested form may be a part): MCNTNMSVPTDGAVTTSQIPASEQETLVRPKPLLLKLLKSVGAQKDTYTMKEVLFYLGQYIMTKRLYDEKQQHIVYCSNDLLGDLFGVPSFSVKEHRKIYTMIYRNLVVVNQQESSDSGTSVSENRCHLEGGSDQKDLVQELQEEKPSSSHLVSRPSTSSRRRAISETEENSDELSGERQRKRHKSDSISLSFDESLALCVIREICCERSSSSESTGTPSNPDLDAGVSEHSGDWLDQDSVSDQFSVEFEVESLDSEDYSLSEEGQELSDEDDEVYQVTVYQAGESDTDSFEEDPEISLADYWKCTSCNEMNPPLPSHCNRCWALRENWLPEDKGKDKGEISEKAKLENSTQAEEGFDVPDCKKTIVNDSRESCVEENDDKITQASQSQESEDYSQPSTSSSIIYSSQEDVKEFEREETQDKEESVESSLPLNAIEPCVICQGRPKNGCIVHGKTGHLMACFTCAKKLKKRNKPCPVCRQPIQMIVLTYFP

Test [3] has as its system HCT-116. The test is described as follows: Cytotoxicity against human HCT116 cells after 72 hrs by SRB assay. Conditions: HCT-116, 72 h. The test is classed as functional, cell-based.
The next test concerns SJSA-1. In words: Cytotoxicity against human SJSA1 cells after 72 hrs by SRB assay. Particulars: SJSA-1, 72 h. In kind it is functional, cell-based.
The test system of another test is SW-620. The test is described as follows: Cytotoxicity against human SW620 cells after 72 hrs by SRB assay. In kind it is functional, cell-based. Conditions: SW-620, 72 h.
Another test concerns A549. In words: Cytotoxicity against human A549 cells after 72 hrs by SRB assay. In kind it is functional, cell-based. Particulars: A549, 72 h.
The test system of a further test is PC-3. The test is described as follows: Cytotoxicity against human PC3 cells after 72 hrs by SRB assay. In kind it is functional, cell-based. Particulars: PC-3, 72 h.

Consider `COC(=O)c1c(N)sc(-c2ccc(Cl)cc2)c1-c1ccc(Cl)cc1`, for which, in the test on HCT-116 [1], the “Ratio IC50” value is listed as 1.3. The IC50 was 4.23 µM in test [2], 1.66 µM in the test on HCT-116 [3], 40.9 µM in the test with SJSA-1 and 3.23 µM in the test with SW-620.

As to `Nc1sc(-c2ccc(Cl)cc2)c(-c2ccc(Cl)cc2)c1C(=O)NC1CCCCC1`, the “Ratio IC50” value with HCT-116 [1] is given as 1.3. The IC50 in test [2] worked out at 0.9 µM; with HCT-116 [3], 0.59 µM; in the test with SJSA-1, 102 µM; in the test on SW-620 it was 3.07 µM.

For the compound `Nc1sc(-c2ccc(Cl)cc2)c(-c2ccc(Cl)cc2)c1C(=O)N1CCCC1`, the “Ratio IC50” value in the test with HCT-116 [1] was found to be 1.3. For the same compound, the IC50 in test [2] was 2.84 µM; with HCT-116 [3], 3.63 µM; with SJSA-1 it was 17.6 µM; in the test on SW-620, 3.87 µM.

Turning to `Nc1sc(-c2ccc(Cl)cc2)c(-c2ccc(Cl)cc2)c1C(=O)Nc1ccccc1`, the IC50 is over 50 µM in test [2], 14.5 µM in the test with HCT-116 [3], over 500 µM in the test on SJSA-1 and 39.7 µM in the test on SW-620.

Turning to `Nc1sc(-c2ccc(Cl)cc2)c(-c2ccc(Cl)cc2)c1C(=O)NC1CC1`, the “Ratio IC50” value with HCT-116 [1] worked out at 1.3. Further, the IC50 in test [2] amounted to 2.08 µM; with HCT-116 [3] it was 0.24 µM; with SJSA-1, 31.9 µM; with SW-620, 1.74 µM.

For the compound `COc1ccc(C2=NC(c3ccc(Cl)cc3)C(c3ccc(Cl)cc3)N2C(=O)N2CCNC(=O)C2)c(OC(C)C)c1` (racemic), the IC50 came out at 0.41 µM in the test with A549; 6.37 µM in the test with PC-3; 4.63 µM with HCT-116 [3]; 1.81 µM in the test with SJSA-1; 0.38 µM with SW-620.

These data come from ChEMBL document CHEMBL3132800, “Identification of novel inhibitors of p53MDM2 interaction facilitated by pharmacophore-based virtual screening combining molecular docking strategy” (Medchemcomm, 2013).
